Test results from PubChem BioAssay (NCI).
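These data come from cells grown in 96-well plates and exposed to compound for 48 hours at five concentrations. TGI denotes the concentration required for complete inhibition of growth.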 Where a SMILES comes first, the peptide text is derived from it. The star is where a group is joined. Boc = CC(C)(C)OC(=O)*; OBn = c1ccc(CO*)cc1; Bn = c1ccc(C*)cc1

Experiments:
Experiment in all cases: NCI tumour cell line growth inhibition, 48 h
PC-3 prostate = tested on: PC-3 prostate
786-0 renal = tested on: 786-0 renal
T-47D breast = tested on: T-47D breast
IGROV1 ovarian = tested on: IGROV1 ovarian
HOP-92 NSCLC = tested on: HOP-92 NSCLC
EKVX NSCLC = tested on: EKVX NSCLC
OVCAR-8 ovarian = tested on: OVCAR-8 ovarian
HCT-15 colon = tested on: HCT-15 colon
OVCAR-5 ovarian = tested on: OVCAR-5 ovarian
SN12C renal = tested on: SN12C renal

| Compound | TGI (PC-3 prostate) [µM] | TGI (786-0 renal) [µM] | TGI (T-47D breast) [µM] | TGI (IGROV1 ovarian) [µM] | TGI (HOP-92 NSCLC) [µM] | TGI (EKVX NSCLC) [µM] | TGI (OVCAR-8 ovarian) [µM] | TGI (HCT-15 colon) [µM] | TGI (OVCAR-5 ovarian) [µM] | TGI (SN12C renal) [µM] |
| --- | --- | --- | --- | --- | --- | --- | --- | --- | --- | --- |
| Cc1cc([C@H](C#N)c2nc3ccccc3s2)nc(Cl)n1 | > 100 | 29.8 | 31.6 | 23.3 | 8.76 | 59.4 | 14.3 | 16.3 | > 100 | > 100 |
| CCOC(=O)Cn1c(=O)c2cc(C)cc3c(Cl)nc4c(OC)c(OC)cc1c4c32 | > 100 | > 100 | – | > 100 | > 100 | > 100 | > 100 | > 100 | > 100 | – |
| COC(=O)/C=C1\C(=O)N(C(C)=O)c2ccccc21 | > 54.9 | 20.9 | 30.5 | 22.4 | 16.8 | 31 | 45.6 | 26.2 | 59.1 | 24.3 |
| CC(C)CC(NC(=O)C(CCC(=O)OCc1ccccc1)NC(=O)OC(C)(C)C)C(=O)NC(COCc1ccccc1)C(=O)NC(Cc1ccccc1)C(=O)O (stereo unspecified) (Boc-E(OBn)LS(Bn)F-OH; configuration not given here) | > 100 | > 100 | – | > 100 | > 100 | > 100 | > 100 | > 100 | > 100 | > 100 |
| CC(=O)O/N=C1\C=Cc2c(no[n+]2[O-])C1=O | 32.3 | 33.5 | 57.5 | 30.3 | – | 31.5 | 25.4 | 36.4 | 32.7 | 32.9 |
